Data on one compound can be found in article PMC3980023 (Cancer discovery, 2014).

The assay addresses T1, IKKε (Homo sapiens, UniProt Q14164).
T1 sequence (Q14164 1-716): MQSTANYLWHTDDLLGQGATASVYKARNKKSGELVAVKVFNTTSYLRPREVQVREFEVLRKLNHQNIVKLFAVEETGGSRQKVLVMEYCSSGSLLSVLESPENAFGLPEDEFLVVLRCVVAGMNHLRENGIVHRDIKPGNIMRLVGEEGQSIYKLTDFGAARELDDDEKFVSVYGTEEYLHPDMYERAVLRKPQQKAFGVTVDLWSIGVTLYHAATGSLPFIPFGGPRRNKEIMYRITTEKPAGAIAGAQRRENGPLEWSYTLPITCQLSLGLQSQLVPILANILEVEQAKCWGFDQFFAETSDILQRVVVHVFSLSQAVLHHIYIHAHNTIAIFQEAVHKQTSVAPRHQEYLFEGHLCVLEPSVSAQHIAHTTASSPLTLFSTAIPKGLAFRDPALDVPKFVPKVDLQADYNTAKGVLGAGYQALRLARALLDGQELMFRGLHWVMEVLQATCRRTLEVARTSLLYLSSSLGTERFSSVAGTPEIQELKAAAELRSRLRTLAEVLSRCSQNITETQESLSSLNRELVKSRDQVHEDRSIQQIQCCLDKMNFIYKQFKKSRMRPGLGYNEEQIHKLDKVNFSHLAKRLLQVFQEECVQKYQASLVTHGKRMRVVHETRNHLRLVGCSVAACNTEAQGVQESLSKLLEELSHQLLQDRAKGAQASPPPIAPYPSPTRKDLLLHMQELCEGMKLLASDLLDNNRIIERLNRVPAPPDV
It counts as biochemical.

On to `N#CCNC(=O)c1ccc(-c2ccnc(Nc3ccc(N4CCOCC4)cc3)n2)cc1` [CYT387], for which the IC50 is 42 nM.
